This is an account of results in patent publication US9856219B2, “Substituted quinoline compounds as S-nitrosoglutathione reductase inhibitors” (Nivalis Therapeutics, Inc., priority 2010, dated 2018).

The subject of test [1] is cigarette smoke-induced COPD (BALF cells). In words: Subchronic (11 day) cigarette smoke exposure COPD model. The class given is in vivo, female C57Bl/6 mice. To be noted: for effects compared to positive control roflumilast: roflumilast 5 mg/kg/day. The method, then:
(§1) The efficacy of GSNOR inhibitors was assessed in a mouse model of chronic obstructive pulmonary disease (COPD) induced by short duration (4 days or 11 days) of exposure to cigarette smoke. Infiltration of inflammatory cells into the bronchoalveolar lavage fluid (BALF) and BALF levels of chemokines involved in inflammation and tissue turnover/repair were measured to assess the influences of GSNOR inhibitors on some of the early events associated with the initiation and progression of COPD.
Efficacy of GSNOR inhibitors against COPD was explored using acute (4 day) and subchronic (11 day) models of cigarette smoke-induced COPD in mice. […] In animal models, changes in lung pathology are only evident after extended (several months) duration of exposure to cigarette smoke, thus making chronic models prohibitive as effective screening tools. More recently, models exploring inflammatory responses after short duration (2 weeks or less) of smoke exposure in mice have been utilized as tools for screening efficacy and mechanisms of action of novel therapeutics against COPD. The key roles of inflammation in the initiation and progression of COPD, make these short duration models relevant for initial tests of efficacy of novel therapeutics.
Female C57Bl/6 mice (N=10 per group) were exposed to cigarette smoke generated from Marlboro 100 cigarettes without filters. Exposure times were 25 min. on study day 1, 35 min. on study day 2, and 45 min. on study days 3 to 11. GSNOR inhibitors were administered one hour prior to smoke exposure on each day. GSNOR inhibitors were dosed orally at 1 to 10 mg/kg/day for 11 days. The effects of GSNOR inhibitors were assessed by quantitating the number of total cells, and leukocytes differentials in the BALF via light microscopy at 24 h after the last exposure. The effect of GSNOR inhibitors were compared to vehicle treated controls and expressed as percent inhibition of the cigarette smoke induced increases in BALF cell numbers. Roflumilast was used as the positive control for the study and was dosed at 5 mg/kg/day. A group of naïve mice (N=10) was exposed to air and dosed with vehicle as a negative control for the study.

Another test has as its system chronic DSS-induced IBD. In words: Chronic treatment model of DSS-induced IBD. To be noted: oral 10 mg/kg/day for up to 14 consecutive days, treatment regimen; p<0.05. The class given is in vivo, male C57Bl/6 mice. The text has this:
Acute and chronic models of dextran sodium sulfate (DSS)-induced IBD in mice were used to explore efficacy of GSNORi against this disease. Acute and chronic DSS-induced IBD are widely used and well characterized models that induce pathological changes in the colon similar to those observed in the human disease. In these models and in human disease, epithelial cells within the crypts of the colon are disrupted, leading to dysfunction of the epithelial barrier and the ensuing tissue inflammation, edema, and ulceration. GSNORi therapy may benefit IBD by restoring s-nitrosoglutathione (GSNO) levels, and thus prevent or reverse the epithelial barrier dysfunction.
Experimental IBD was induced by administration of DSS in the drinking water of male C57Bl/6 mice (N=10 to 12 mice per group) for 6 consecutive days. GSNORi was dosed orally at doses of 10 mg/kg/day for 14 days starting one day after cessation of DSS exposure. Efficacy of GSNORi was assessed in a blinded fashion via endoscopy after 7 days and 14 days of GSNORi dosing and via histopathology after 14 days of GSNORi dosing using a five point scale ranging from a score=0 (normal tissue) through a score=4 (ulcerative tissue damage and marked pathological changes). Levels of circulating cytokines involved in inflammatory pathways were also assessed. […] Naïve mice (N=5) were also assessed as a normal tissue control.

The test system of test [2] is cigarette smoke-induced COPD (BALF cells and chemokines). Nature of the test: Acute (4 day) cigarette smoke exposure COPD model. The class given is in vivo, female C57Bl/6 mice. To be noted: oral 10 mg/kg/day for 7 days. The protocol:
as §1
Efficacy of GSNOR inhibitors against COPD was explored using acute (4 day) and subchronic (11 day) models of cigarette smoke-induced COPD in mice. […] In animal models, changes in lung pathology are only evident after extended (several months) duration of exposure to cigarette smoke, thus making chronic models prohibitive as effective screening tools. […]
Female C57Bl/6 mice (N=8 per group) were exposed to cigarette smoke using a whole body exposure chamber. […] The effects of GSNOR inhibitors were assessed by quantitating the numbers of total cells, leukocytes, and leukocytes differentials in the BALF via light microscopy and the levels of BALF chemokines via ELISA at approximately 24 h after the last smoke exposure. […]

A further test has as its system acute DSS-induced IBD. In words: Acute prophylactic model of DSS-induced IBD. The test is classed as in vivo, male C57Bl/6 mice. The text has this:
Acute and chronic models of dextran sodium sulfate (DSS)-induced IBD in mice were used to explore efficacy of GSNORi against this disease. Acute and chronic DSS-induced IBD are widely used and well characterized models that induce pathological changes in the colon similar to those observed in the human disease. In these models and in human disease, epithelial cells within the crypts of the colon are disrupted, leading to dysfunction of the epithelial barrier and the ensuing tissue inflammation, edema, and ulceration. GSNORi therapy may benefit IBD by restoring s-nitrosoglutathione (GSNO) levels, and thus prevent or reverse the epithelial barrier dysfunction. Experimental IBD was induced by administration of DSS in the drinking water of male C57Bl/6 mice (N=8 to 10 mice per group) for 6 consecutive days. GSNORi was dosed orally at doses of 0.1 to 10 mg/kg/day for 10 days starting two days prior to and continuing two days post DSS exposure. Two days post DSS exposure, the effect of GSNORi was assessed in a blinded fashion via endoscopy and histopathology using a five point scale ranging from a score=0 (normal tissue) through a score=4 (ulcerative tissue damage and marked pathological changes). Levels of circulating cytokines involved in inflammatory pathways were also assessed. The effect of GSNORi was compared to vehicle treated controls. The corticosteroid, prednisolone, was used as the positive control in this study and was administered daily at 3 mg/kg/day via oral dosing. Naïve mice (N=5) were also assessed as a normal tissue control.

The mark [3] stands for this setting: oral 10 mg/kg/day for 10 consecutive days, prophylactic regimen.

Regarding `O=C(O)c1ccc(-c2ccc3cc(O)ccc3n2)c(F)c1` [Compound 13, 3-fluoro-4-(6-hydroxyquinolin-2-yl)benzoic acid], the “effects compared to positive control roflumilast” value in test [1] is recorded as “comparable to those of roflumilast”. Besides, in the test on chronic DSS-induced IBD, the “decrease of percent of mice with severe colon injury scores via endoscopy, of vehicle control” value is 52% and the “decrease of percent of mice with severe colon injury scores via histopathology, of vehicle control” value was determined as 53%.
In the case of `Cc1cc(C(=O)O)ccc1-c1ccc2cc(O)ccc2n1` [Compound 27, 4-(6-hydroxyquinolin-2-yl)-3-methylbenzoic acid], the “effects compared to positive control roflumilast” value in test [1] was “comparable to those of roflumilast”.
With `O=C(O)c1ccc(-c2ccc3cc(O)ccc3n2)cc1` [Compound 3, 4-(6-hydroxyquinolin-2-yl)benzoic acid], in test [2], the BALF chemokines entry is on record as “restored BALF chemokines towards levels observed in naïve mice” and the “effects compared to positive control roflumilast” value was “comparable to or greater than those observed for roflumilast”. In the test on acute DSS-induced IBD (oral 0.1, 1, or 10 mg/kg/day for 10 days, prophylactic regimen), the circulating inflammatory cytokines entry is listed as “restored circulating inflammatory cytokines towards levels observed in untreated naïve mice”. For the same compound, the “effects compared to positive control prednisolone” value in the test on acute DSS-induced IBD (prednisolone 3 mg/kg/day oral) is given as “comparable to or greater than those observed for prednisolone”.
Take `O=C(O)c1ccc(-c2ccc3cc(O)ccc3n2)c(Cl)c1` [Compound 8, 3-chloro-4-(6-hydroxyquinolin-2-yl)benzoic acid]: in the test with acute DSS-induced IBD (setting [3]), the “decrease of percent of mice with severe colon injury scores via endoscopy, of vehicle control” value is given as 44% and the “decrease of percent of mice with severe colon injury scores via histopathology, of vehicle control” value came out at 26%. In test [1] (oral 1, 5, or 10 mg/kg/day), the “dose response of effect” value was “no dose response”. In addition, in test [1], the “effects compared to positive control roflumilast” value is on record as “comparable to those of roflumilast”.
